The values below come from patent US20220331286A1, “CANNABIS LIMITS CANCER STEM CELL GROWTH IN POORLY DIFF[…]” (The Regents of the University of California, priority 2021, published 2022).

Molecules are shown by their SMILES. “Also recorded” adds a separate entry of the source.

One assay has as its system breast cancer cell lines. The conditions noted are these: not normal breast epithelium; cited from earlier work.
Assay [1] deals with MIA PaCa-2 (MP2) poorly differentiated/stem like pancreatic tumor cells. Kind of assay: Microscopy of cell morphology and viability. It counts as cell-based, human. The conditions noted are these: different concentrations of WIN 55,212-2; CDDP 50 μg/mL; 24 hours.
In assay [2] the test system is oral squamous carcinoma stem cells (OSCSCs). The assay can be described thus: Viable cell count (Trypan Blue) after treatment. It counts as cell-based, human. The conditions noted are these: WIN 55,212-2 10, 25, 50, 100 μM; CDDP 50 μg/ml; 24 hours. As for the experimental part:
(§1) Oral squamous carcinoma cells (OSCCs) and oral squamous carcinoma stem cells (OSCSCs) were isolated from cancer patients with tongue tumors at UCLA. The cells were cultured in RPMI 1640 complete medium with 10% fetal bovine serum (FBS) 1.4% Antibiotic-Antimycotic, 1% sodium pyruvate, 1.4% non-essential amino acids, 1% L-glutamine, 0.2% gentamicin (Gemini Bio-Products, CA, USA), and 0.15% sodium bicarbonate (Fisher Scientific, PA, USA).
(§2) As shown in FIG. 1A-1E, OSCSCs are affected more by WIN 55,212-2 than OSCCs. Both OSCCs (oral squamous carcinoma cells) and OSCSCs (oral squamous carcinoma stem cells) were treated with various concentrations of WIN 55,212-2 (10, 25, 50, and 100 μM) and CDDP (50 μg/ml), and the cell numbers were determined after 24 hours of treatment.
(§3) RPMI 1640 (Gibco, Thermo Fisher Scientific, USA) complete medium with 10% fetal bovine serum (FBS) (Gemini Bio-Products, San Diego, Calif., USA), 1.4% of non-essential amino acid (Gibco, Thermo Fisher Scientific, USA), 1.4% sodium pyruvate (Gibco, Thermo Fisher Scientific, USA), 0,15% of sodium bicarbonate (Fisher Scientific, Waltham, Mass., USA) and 1% antibiotics/antimycotics (Gemini Bio-Products, San Diego, Calif., USA) was used for oral tumor culture. DMEM (Gibco, Thermo Fisher Scientific, USA) supplemented with 10% FBS and 1% antibiotics/antimycotics was used for pancreatic tumor cell culture. Oral squamous carcinoma cells (OSCCs) and oral squamous carcinoma stem cells (OSCSCs) were isolated from cancer patients with tongue tumor at UCLA. Human pancreatic cancer cell lines MIA PaCa-2 (MP2) and PL-12 were generously provided by Dr. Guido Eibl (UCLA David Geffen School of Medicine) and by Dr. Nicholas Cacalano (UCLA Jonsson Comprehensive Cancer Center), respectively. […] CDDP was purchased from Ronald Reagan UCLA Medical Center Pharmacy. […] TNF-α and IFN-γ were purchased from Peprotech (Rockyhill, N.J.).
(§4) The number of viable cells was counted under light microscope using Trypan Blue staining (Sigma, Mo., USA).

The test system of assay [3] is Oral squamous carcinoma cells (OSCCs). The assay can be described thus: Viable cell count (Trypan Blue) after treatment. The class given is cell-based, human. As for the experimental part:
as §1, §2, §3, §4

The subject of assay [4] is oral squamous carcinoma stem cells (OSCSCs). Kind of assay: Microscopy of cell morphology and viability. The class given is cell-based, human. The conditions noted are these: WIN 55,212-2 even at the lowest concentrations; CDDP 50 μg/mL; 24 h.
For assay [5], the system named is Oral squamous carcinoma cells (OSCCs). The assay can be described thus: Cell death by propidium iodide staining and flow cytometry. The conditions noted are these: CDDP 50 μg/mL, 24 hours. The class given is cell-based, human. On the procedure:
After an overnight incubation the cells were washed twice and stained with propidium iodide (PI) at a concentration of 3 μg/ml. Flow cytometric analysis was performed using Attune flow cytometer results were analyzed using FlowJo vX software (Ashland, Oreg.).

In assay [6] the test system is PL-12 well-differentiated pancreatic tumor cells. The assay can be described thus: Microscopy of cell morphology and viability. The conditions noted are these: different concentrations of WIN 55,212-2; CDDP 50 μg/mL; 24 hours. The class given is cell-based, human.
For assay [7] the test system is unchanged. The assay can be described thus: Viable cell count (Trypan Blue) after treatment. It counts as cell-based, human. The conditions noted are these: various concentrations of WIN 55,212-2; CDDP 50 μg/ml.
From the text: Six different pancreatic tumor cell lines each characterized at poorly, intermediate and well differentiated stages pathologically by other laboratories previously were used to determine phenotype, susceptibility to NK cell-mediated cytotoxicity and secretion of IFN-γ directly correlating with the differentiation stages of the tumors. […] Furthermore, the stage of differentiation of the tumors was correlated with sensitivity to NK cell mediated cytotoxicity in pancreatic tumor cells. […] Therefore, a direct correlation between augmented sensitivity to NK-mediated lysis and poor differentiation of pancreatic tumors was evident from these experiments. For the following experiments MP2 and PL12 were used as representative tumor types for poorly differentiated and well differentiated tumors respectively. Human pancreatic cancer cell line MIA PaCa-2 (MP2), was provided by Dr. Guido Eibl (UCLA David Geffen School of Medicine) and PL12 was provided by Dr. Nicholas Cacalano (UCLA Jonsson Comprehensive Cancer Center). MP2 tumors were cultured with DMEM in supplement with 10% FBS and 1% Penicillin-Streptomycin (Gemini Bio-Products, CA). PL12 pancreatic tumors were cultured in RMPI 1640 medium supplemented with 10% FBS and 1% penicillin-streptomycin.
as §3, §4

Assay [8] has the same test system. The assay can be described thus: Cell death by propidium iodide staining and flow cytometry. The conditions noted are these: CDDP 50 μg/mL. It counts as cell-based, human. The text has this: Propidium iodide (PI) staining was used to determine the cell death by flow cytometry.
In general terms: In flow cytometry, cells or beads pass a laser one at a time.

Assay [9] has as its system Oral squamous carcinoma cells (OSCCs). Kind of assay: Microscopy of cell morphology and viability. It counts as cell-based, human. The conditions noted are these: WIN 55,212-2 50 μM or higher; CDDP 50 μg/mL; 24 h.

For `CCCCCc1cc(O)c2c(c1)OC(C)(C)[C@@H]1CCC(C)=C[C@@H]21` [THC, Tetrahydrocannabinol], in the assay with breast cancer cell lines, the “effect on radiotherapy / anti-proliferative effects of radiation” value is “failed to enhance anti-proliferative effects of radiation”.
With `N.N.[Cl][Pt][Cl]` [CDDP, cis-diaminedichloridoplatinum (II)], the “morphology/viability of MP2 under the microscope” value in assay [1] was “affected both PL-12 and MP2 morphologically”. Also, the “killing / decrease in cell numbers of OSCSCs, in words” value in assay [2] is listed as “not killed”. For the same molecule, in [3] (CDDP 50 μg/mL, 24 h), the “inhibition of cell growth, OSCCs compared with OSCSCs” value was “inhibit cell growth of OSCCs more than those seen with OSCSCs”. The “killing / decrease in cell numbers of OSCCs, in words” value in [3] (WIN 55,212-2 10, 25, 50, 100 μM, CDDP 50 μg/ml, 24 hours) is listed as “killed significantly; also recorded: greater decreases in cell numbers”. For the same molecule, the “morphology/attachment of OSCSCs under the microscope” value in assay [4] is “the majority of these cells were still attached to the cell culture plate”. Moreover, in assay [5], the “cell death in OSCCs compared with OSCSCs (PI staining)” value is given as “significant cell death in OSCCs when compared to OSCSCs; also recorded: more cell death in OSCCs when compared to OSCSCs”. Besides, the “morphology/viability of PL-12 under the microscope” value in assay [6] was “affected both PL-12 and MP2 morphologically”. Besides, in assay [7], the “percent decrease in cell numbers of PL12, in words” value is given as “greater decrease in cell numbers”. Further, in assay [8], the “cell death in PL-12 compared with MP2 (PI staining)” value was “higher in PL-12 in the representative experiment (FIG. 16B) and similar in compiled data”. In assay [9], the “morphology/viability of OSCCs under the microscope” value was “loss of morphology, and the majority were detached from the plates”.
`C=C(C)[C@@H]1CCC(C)=C[C@H]1c1c(O)cc(CCCCC)cc1O` [CBD, Cannabidiol]: the “effect on radiotherapy / anti-proliferative effects of radiation” value in the assay with breast cancer cell lines is “failed to enhance anti-proliferative effects of radiation”.
`CCCCCCC(C)(C)c1cc(O)c2c(c1)OC(C)(C)C1CCC(=O)CC21` (stereo not shown) [nabilone]: the “effect on radiotherapy / anti-proliferative effects of radiation” value in the assay with breast cancer cell lines is given as “failed to enhance anti-proliferative effects of radiation”.
